Measured values taken from US12479831B2, “Substituted N(-methyl-D3)pyridazine-3-carboxamide or M-(methyl-D3)-nicotinamide compounds as IL-12, IL-23 and/or IFNα modulators” (BRISTOL-MYERS SQUIBB COMPANY, priority 2020, dated 2025).

Test system: IFNα-Induced STAT Phosphorylation in Human Whole Blood
Assay: IFNα-Induced STAT Phosphorylation in Human Whole Blood
Assay type: cell-based
Conditions: 1 h incubation with compound, 1000 U/mL recombinant human IFNα A/D for 15 min, pSTAT5 (pY694) median fluorescence intensity in CD3 positive population, read-out: hWB IC50
Protocol: IFNα-Induced STAT Phosphorylation in Human Whole Blood
After an hour long incubation with compound, human whole blood (drawn with either EDTA or ACD-A as anti-coagulant) was stimulated with 1000 U/mL recombinant human IFNα A/D (R&D Systems 11200-2) for 15 min. The stimulation was stopped by adding Fix/Lyse buffer (BD 558049). Cells were stained with a CD3 FITC antibody (BD 555916), washed, and permeabilized on ice using Perm III buffer (BD 558050). […] The amount of pSTAT5 expression was quantitated by median fluorescence intensity after gating on the CD3 positive population.
IFNα-Induced STAT Phosphorylation in Human Whole Blood Inhibition Data

| SMILES | IC50 [nM] |
| --- | --- |
| [2H]C([2H])([2H])NC(=O)c1nnc(NC(=O)C2CC2)cc1Nc1cc(F)cc(-c2ccc(C(=O)N(C)C)cn2)c1OC [Example 44, 6-(cyclopropanecarboxamido)-4-((3-(5-(dimethylcarbamoyl)pyridin-2-yl)-5-fluoro-2-methoxyphenyl)amino)-N-(methyl-d3)pyridazine-3-carboxamide] | 109 |
| [2H]C([2H])([2H])NC(=O)c1nnc(NC(=O)C2CC2)cc1Nc1cccc(-c2ccc(C(=O)N3CCCC3)cn2)c1OC [Example 45] | 218 |
| [2H]C([2H])([2H])NC(=O)c1nnc(NC(=O)C2CC2)cc1Nc1cccc(-c2ncc(C(=O)N3CCCC3)cn2)c1OC [Example 47, 6-(cyclopropanecarboxamido)-4-((2-methoxy-3-(5-(pyrrolidine-1-carbonyl)pyrimidin-2-yl)phenyl)amino)-N-(methyl-d3)pyridazine-3-carboxamide] | 126 |
| [2H]C([2H])([2H])NC(=O)c1nnc(NC(=O)C2CC2)cc1Nc1cccc(-c2ncc(C(=O)N3CCC3)cn2)c1OC [Example 48, 4-((3-(5-(azetidine-1-carbonyl)pyrimidin-2-yl)-2-methoxyphenyl)amino)-6-(cyclopropanecarboxamido)-N-(methyl-d3)pyridazine-3-carboxamide] | 118 |
| [2H]C([2H])([2H])NC(=O)c1nnc(NC(=O)C2CC2)cc1Nc1cccc(-c2nccc(C(=O)N(C)C)n2)c1OC [Example 49, 6-(cyclopropanecarboxamido)-4-((3-(4-(dimethylcarbamoyl)pyrimidin-2-yl)-2-methoxyphenyl)amino)-N-(methyl-d3)pyridazine-3-carboxamide] | 327 |
| [2H]C([2H])([2H])NC(=O)c1nnc(NC(=O)C2CC2)cc1Nc1cccc(-c2cnc(N(C)C(C)=O)cn2)c1OC [Example 56, 6-(Cyclopropanecarboxamido)-4-((2-methoxy-3-(5-(N-methylacetamido)pyrazin-2-yl)phenyl)amino)-N-(methyl-d3)pyridazine-3-carboxamide] | 117 |
| [2H]C([2H])([2H])NC(=O)c1nnc(NC(=O)C2CC2)cc1Nc1cccc(-c2cnc(N3CCOCC3)cn2)c1OC [Example 57, 6-(Cyclopropanecarboxamido)-4-((2-methoxy-3-(5-morpholinopyrazin-2-yl)phenyl)amino)-N-(methyl-d3)pyridazine-3-carboxamide] | 117 |
| [2H]C([2H])([2H])NC(=O)c1nnc(NC(=O)C2CC2)cc1Nc1cccc(-c2cnc(N3CCN(C)CC3)cn2)c1OC [Example 58, 6-(cyclopropanecarboxamido)-4-((2-methoxy-3-(5-(4-methylpiperazin-1-yl)pyrazin-2-yl)phenyl)amino)-N-(methyl-d3)pyridazine-3-carboxamide] | 267 |
| [2H]C([2H])([2H])NC(=O)c1nnc(NC(=O)C2CC2)cc1Nc1cccc(-c2cnc(N3CCN(C(C)=O)CC3)cn2)c1OC [Example 59, 4-((3-(5-(4-acetylpiperazin-1-yl)pyrazin-2-yl)-2-methoxyphenyl)amino)-6-(cyclopropanecarboxamido)-N-(methyl-d3)pyridazine-3-carboxamide] | 121 |
| [2H]C([2H])([2H])NC(=O)c1cnc(NC(=O)C2CC2)cc1Nc1cccc(-c2cnc(-n3cncn3)cn2)c1OC [Example 60, 4-((3-(5-(1H-1,2,4-triazol-1-yl)pyrazin-2-yl)-2-methoxyphenyl)amino)-6-(cyclopropanecarboxamido)-N-(methyl-d3)nicotinamide] | 1040 |
| [2H]C([2H])([2H])NC(=O)c1cnc(Nc2cc(C#N)n(C)n2)cc1Nc1cccc(-c2ncccn2)c1OC [Example 61, 6-((5-Cyano-1-methyl-1H-pyrazol-3-yl)amino)-4-((2-methoxy-3-(pyrimidin-2-yl)phenyl)amino)-N-(methyl-d3)nicotinamide] | 225 |
| [2H]C([2H])([2H])NC(=O)c1cnc(Nc2cc(C#N)n(C)n2)cc1Nc1cccc(-c2ncc(F)cn2)c1OC [Example 62, 6-((5-cyano-1-methyl-1H-pyrazol-3-yl)amino)-4-((3-(5-fluoropyrimidin-2-yl)-2-methoxyphenyl)amino)-N-(methyl-d3)nicotinamide] | 109 |
| [2H]C([2H])([2H])NC(=O)c1cnc(Nc2cc(Cl)n(C)n2)cc1Nc1cccc(-c2ncc(F)cn2)c1OC [Example 66, 6-((5-chloro-1-methyl-1H-pyrazol-3-yl)amino)-4-((3-(5-fluoropyrimidin-2-yl)-2-methoxyphenyl)amino)-N-(methyl-d3)nicotinamide] | 146 |
| [2H]C([2H])([2H])NC(=O)c1cnc(Nc2ccn(C3CC3)n2)cc1Nc1cccc(-c2ncc(F)cn2)c1OC [Example 68, 6-((1-cyclopropyl-1H-pyrazol-3-yl)amino)-4-((3-(5-fluoropyrimidin-2-yl)-2-methoxyphenyl)amino)-N-(methyl-d3)nicotinamide] | 134 |
| [2H]C([2H])([2H])NC(=O)c1cnc(Nc2ccccn2)cc1Nc1cccc(-c2ncc(F)cn2)c1OC [Example 70, 4-((3-(5-fluoropyrimidin-2-yl)-2-methoxyphenyl)amino)-N-(methyl-d3)-6-(pyridin-2-ylamino)nicotinamide] | 90 |
| [2H]C([2H])([2H])NC(=O)c1cnc(Nc2cnc(C#N)cn2)cc1Nc1cccc(-c2ncc(F)cn2)c1OC [Example 71, 6-((5-cyanopyrazin-2-yl)amino)-4-((3-(5-fluoropyrimidin-2-yl)-2-methoxyphenyl)amino)-N-(methyl-d3)nicotinamide] | 278 |
| [2H]C([2H])([2H])NC(=O)c1cnc(Nc2cnc(C#N)cn2)cc1Nc1cccc(-c2ncccn2)c1OC [Example 72, 6-((5-cyanopyrazin-2-yl)amino)-4-((2-methoxy-3-(pyrimidin-2-yl)phenyl)amino)-N-(methyl-d3)nicotinamide] | 168 |
| [2H]C([2H])([2H])NC(=O)c1cnc(Nc2ccc(OC)nn2)cc1Nc1cccc(-c2ncc(F)cn2)c1OC [Example 74, 4-((3-(5-fluoropyrimidin-2-yl)-2-methoxyphenyl)amino)-6-((6-methoxypyridazin-3-yl)amino)-N-(methyl-d3)nicotinamide] | 87 |

Continued by falling IC50, values first:

| IC50 [nM] | SMILES |
| --- | --- |
| 87 | [2H]C([2H])([2H])NC(=O)c1cnc(Nc2ccn(CC)n2)cc1Nc1cccc(-c2ncc(F)cn2)c1OC [Example 67, 6-((1-ethyl-1H-pyrazol-3-yl)amino)-4-((3-(5-fluoropyrimidin-2-yl)-2-methoxyphenyl)amino)-N-(methyl-d3)nicotinamide] |
| 86 | [2H]C([2H])([2H])NC(=O)c1cnc(Nc2ccn(C)n2)cc1Nc1cccc(-c2ncc(F)cn2)c1OC [Example 65, 4-((3-(5-fluoropyrimidin-2-yl)-2-methoxyphenyl)amino)-N-(methyl-d3)-6-((1-methyl-1H-pyrazol-3-yl)amino)nicotinamide] |
| 80 | [2H]C([2H])([2H])NC(=O)c1nnc(NC(=O)C2CC2)cc1Nc1cc(F)cc(-c2ncc(C(=O)N(C)CC)cn2)c1OC [Example 54, 6-(cyclopropanecarboxamido)-4-((3-(5-(ethyl(methyl)carbamoyl)pyrimidin-2-yl)-5-fluoro-2-methoxyphenyl)amino)-N-(methyl-d3)pyridazine-3-carboxamide] |
| 75 | [2H]C([2H])([2H])NC(=O)c1cnc(Nc2cc(C(F)(F)F)n(C)n2)cc1Nc1cccc(-c2ncc(F)cn2)c1OC [Example 64, 4-((3-(5-fluoropyrimidin-2-yl)-2-methoxyphenyl)amino)-N-(methyl-d3)-6-((1-methyl-5-(trifluoromethyl)-1H-pyrazol-3-yl)amino)nicotinamide] |
| 56 | [2H]C([2H])([2H])NC(=O)c1nnc(NC(=O)C2CC2)cc1Nc1cc(F)cc(-c2ccc(C(=O)N(C)C)nn2)c1OC [Example 42, 6-(cyclopropanecarboxamido)-4-((3-(6-(dimethylcarbamoyl)pyridazin-3-yl)-5-fluoro-2-methoxyphenyl)amino)-N-(methyl-d3)pyridazine-3-carboxamide] |
| 56 | [2H]C([2H])([2H])NC(=O)c1cnc(Nc2ccn(C3CC3)n2)cc1Nc1cccc(-c2ncccn2)c1OC [Example 69, 6-((1-cyclopropyl-1H-pyrazol-3-yl)amino)-4-((2-methoxy-3-(pyrimidin-2-yl)phenyl)amino)-N-(methyl-d3)nicotinamide] |
| 50 | [2H]C([2H])([2H])NC(=O)c1nnc(NC(=O)C2CC2)cc1Nc1cccc(-c2ncc(C(=O)N(C)C3CC3)cn2)c1OC [Example 52, 6-(cyclopropanecarboxamido)-4-((3-(5-(cyclopropyl(methyl)carbamoyl)pyrimidin-2-yl)-2-methoxyphenyl)amino)-N-(methyl-d3)pyridazine-3-carboxamide] |
| 49 | [2H]C([2H])([2H])NC(=O)c1cnc(Nc2cc(C)n(C)n2)cc1Nc1cccc(-c2ncc(F)cn2)c1OC [Example 63, 6-((1,5-dimethyl-1H-pyrazol-3-yl)amino)-4-((3-(5-fluoropyrimidin-2-yl)-2-methoxyphenyl)amino)-N-(methyl-d3)nicotinamide] |
| 47 | [2H]C([2H])([2H])NC(=O)c1nnc(NC(=O)C2CC2)cc1Nc1cccc(-c2ncc(C3CCOC3)cn2)c1OC (stereo not shown) [Example 55, 6-(Cyclopropanecarboxamido)-4-((2-methoxy-3-(5-(tetrahydrofuran-3-yl)pyrimidin-2-yl)phenyl)amino)-N-(methyl-d3)pyridazine-3-carboxamide] |
| 41 | [2H]C([2H])([2H])NC(=O)c1nnc(NC(=O)C2CC2)cc1Nc1cccc(-c2ncc(C(=O)N(C)CC)cn2)c1OC [Example 50, 6-(Cyclopropanecarboxamido)-4-((3-(5-(ethyl(methyl)carbamoyl)pyrimidin-2-yl)-2-methoxyphenyl)amino)-N-(methyl-d3)pyridazine-3-carboxamide] |
